Here are results for one molecule from patent US20230172884A1, “USE OF BUCILLAMINE IN THE TREATMENT OF INFECTIOUS DISEASES” (Revive Therapeutics Ltd, priority 2020, published 2023).

For series [1] the following is noted: versus N-acetylcysteine (NAC); cited from earlier work.
Series [2] relates to COVID-19. The series can be described thus: Phase 3 multi-center, randomized, double-blind, placebo-controlled study of Bucillamine in patients with mild-moderate COVID-19. It counts as in vivo, human. Particulars: Bucillamine 100 mg or 200 mg TID for up to 14 days, preliminary indications to date. Here is the method: A Phase 3 confirmatory clinical trial titled, “A Multi-Center, Randomized, Double-Blind, Placebo-Controlled Study of Bucillamine in Patients with Mild-Moderate COVID-19”, was undertaken to enroll up to 1,000 patients randomized 1:1:1 to receive Bucillamine 100 mg three times a day (“TID”), Bucillamine 200 mg TID or placebo TID for up to 14 days. The primary objective is to compare the frequency of hospitalization or death in patients with mild-moderate COVID-19 receiving Bucillamine therapy with those receiving placebo. The primary endpoint is the proportion of patients meeting a composite endpoint of hospitalization or death from the time of the first dose through Day 28 following randomization. Efficacy was assessed by comparing clinical outcomes (death or hospitalization), disease severity using the 8-category NIAID COVID ordinal scale, supplemental oxygen use, and progression of COVID-19 between patients receiving standard-of-care plus Bucillamine (high dose and/or low dose) and patients receiving standard-of-care plus placebo.

The conditions of series [3]: not told; cited from earlier work.
For series [4] the following is noted: statement with literature references 8, 9; cited from earlier work.

Regarding `CC(C)(S)C(=O)NC(CS)C(=O)O` (stereo not drawn) [Bucillamine, N-(mercapto-2-methylpropionyl)-l-cysteine], the “potency as a thiol donor in vivo relative to NAC” value in series [1] is 16 fold. In series [2], the “hospitalization or death from COVID-19 (composite clinical outcome)” value is given as “none of the patients receiving Bucillamine in the trial have to date been hospitalised for COVID-19 or have died from COVID-19”. Further, in series [3], the cell permeability entry is “highly cell permeable”. The toxicity entry in series [4] is given as “non-toxic”.
